Data published in patent publication US5962456A, “N-acylpiperazine derivative, anti-ulcer drug, and antibacterial drug” (Shiseido Co., Ltd., priority 1996, dated 1999).

Experiments:
[1] = system: isolated gastric fundic gland; assay: CAP: Acid Secretion Inhibition Test In Vitro ([14C]-aminopyrine uptake); assay type: cell-based, rabbit (male Japanese White); details: final concentration 10^-5 M, histamine 10^-5 M, rabbit gastric fundic glands; for inhibition at 10 µM: Oryctolagus cuniculus, read-out: CAP acid secretion inhibitory rate
Protocol: CAP: Acid Secretion Inhibition Test In Vitro
The acid secretion inhibitory activity in a cell level is studied. It can also be used for studying the mechanism of the effect. […]
ii-a) Preparation of Isolated Gastric Fundus Gland Suspension
First, an isolated gastric fundic gland sample was prepared. Namely, a male Japanese White rabbit (2.5 to 3 kg) was anesthetized to death with Nembutal™ and then the abdomen was incised. Immediately thereafter, the stomach was removed and, after its pyloric and cardiac antrum were severed, incised along its greater curvature into two sheets. The gastric contents adhering to the mucosal surface was washed out with ice-cooled PBS (-) and then carefully washed therein. The gastric wall was spread on a cork board with its mucosal surface facing up and the feed and mucus thereon were completely removed with sterile gauze. The mucosa was separated therefrom by a spatula and then collected in ice-cooled PBS (-). After being washed twice with PBS (-), the mucosa was minced into 2-3 mm^3 pieces by scissors. These pieces were further washed twice with a nutrient solution. […] Into 70 ml of the nutrient solution containing 1 mg/ml of collagenase, minced mucosal pieces were dispersed and intensely stirred in a conical flask with a stirrer at 37° C. for 40 to 60 minutes. During this period, 100% O2 was sprayed on the nutrient solution surface and the pH was appropriately measured such that it was immediately adjusted to pH 7.4, when the value was therebelow, with a base. The nutrient solution was added to the reaction solution so as to attain the total amount of about 200 ml. After being filtered through a mesh, the suspension was divisionally introduced into 50 ml centrifuge tubes and left for 15 minutes such that gastric fundic gland was deposited. The supernatant was repeatedly removed by an aspirator, dispersed in the nutrient solution, and then left such that the gastric fundic gland was washed three times. At this time, without using a pipette, the suspension was alternately introduced into two centrifuge tubes so as to effect dispersion. The number of cells was counted under microscope and adjusted to 1.6×10^6 cells/ml. […]
ii-b) [^14 C]-aminopyrine Uptake Test
Then, [^14 C]-aminopyrine uptake test was performed. After an Eppendorf tube was weighed, 10 μl (final concentration: 10^-5 M) of histamine dissolved in the above-mentioned nutrient solution, 10 μl (final concentration: 10^-5 M) of the test compound dissolved in DMSO, and 10 μl (final concentration: 0.05 μCi/ml) of [^14 C]-aminopyrine diluted with the nutrient solution were introduced therein and then 970 μl of the isolated gastric fundic gland suspension prepared above was added thereto. […] After being centrifuged for 30 minutes, 200 μl of its supernatant was collected into a mini-vial, while the rest was removed by an aspirator. The gland pellet was completely dried as the tube with its lid being opened was kept for one night in a drying oven at 80° C. and then the lid was closed and the weight was determined at room temperature. Then 100 μl of 1N KOH was added thereto and the tube with its lid being closed was treated at 60° C. for 1 to 2 hours so as to dissolve the pellet. Then, the contents thereof were transferred to a mini-vial. Into the mini-vial containing the supernatant or gland pellet, 4 ml of Atomlite™ was added and then the radioactivity was measured by a liquid scintillation counter. Here, after the radioactivity of the gland pellet was corrected by using a sample in which 20 mM of NaSCN was added so as to cancel the hydrogen ion concentration gradient, the integration ratio of aminopyrine specifically trapped by the gland pellet was calculated. This experiment was performed in duplicate. […]
ii-c) Calculation of the Accumulation Rate of Aminopyrine
Here, its principle will be briefly explained. In the isolated gastric fundic gland, acid is accumulated in a space between its secretory tubule and intraglandular cavity.

[2] = system: Helicobacter pyroli; assay: AHP: Antibacterial Activity Test Against Helicobacter pyroli (agar dilution); assay type: cell-based, HP NCTC 11637; details: for MIC: Helicobacter, NCTC11637, 168 h, HP NCTC 11637, agar dilution, 7 days, read-out: AHP minimum inhibitory concentration (MIC); for AHP antibacterial activity, colony number relative to control plate: MIC 100 μg/ml or more, plate with 250 mM solution of the sample compound
Protocol: AHP: Antibacterial Activity Test Against Helicobacter pyroli i) Meaning The minimum inhibitory concentration (MIC) against Helicobacter pyroli (microaerophilic gram-negative bacterium which is supposed to deeply involve in pathogenesis, relapse, and recrudescence of ulcer, referred to as "HP" in the following) is measured so as to find out compounds which have antimicrobial activity against Helicobacter pyroli. ii) Method MICs were determined by the agar dilution method. The stock culture (-80° C.) of HP NCTC 11637 was thawed and cultured on tripticase soy agar supplemented with 5% sheep blood at 37° C. in an atmosphere of 5% O2, 10% CO2, and 85% N2. Grown colonies were transferred to the same plate and precultured for 3 days under the same condition. […] 10 μl of the bacterial suspension for inoculation (about 10^3 cfu) was inoculated on this plate and cultured for 7 days under the same condition as that of preculture. […] As the result of the comparison of these plates, when the number of the colony on the plate containing the sample compound was less than 90% with respect to that on the control plate, it was represented by "+". Contrary to this, when there was 90% or more, it was represented by "-".

[3] = MTT: Cell Damaging and Protecting Effect Test; assay type: cell-based, rabbit (male Japanese White); details: rabbit, gastric corpus mucosa cells, final concentration 10^-4 M, smaller value is better, read-out: MTT cell damaging rate
Excerpt: (§1) MTT: Cell Damaging and Protecting Effect Test
(§2) It is confirmed that there is no toxicity in cell level. Those having a toxicity in cell level are inappropriate as an anti-ulcer drug.
(§3) A male Japanese White rabbit (2.5 to 3 kg) was anesthetized to death by Nembutal™ and, immediately thereafter, its stomach was removed. The greater curvature of the stomach was incised so as to remove the stomach contents therefrom. After the mucosal surface was washed with HBSS (Hanks' Balanced Salt Solution), the stomach in ice-cooled HBSS was transferred to a laboratory. Then, after the pyloric antrum was removed, the gastric corpus mucosa was separated by a spatula and then minced into 2 to 3 mm^3 pieces in BME (Basal Medium Eagle). Thereafter, these pieces were shaken at 120 to 130 cycles/minute for 15 minutes at 37° C. in BME 60 ml containing 280 U/ml of dispase and 30 to 50 U/ml of collagenase. Here, the concentration of collagenase was appropriately changed for each lot in view of the state of cells. The pieces were washed twice with EBSS (Earle's Balanced Salt Solution) containing 1 mM of EDTA and then shaken in MEM (Minimum Essential Medium) containing 1 mM of EDTA at 37° C. for 5 minutes. Subsequently, they were shaken in the dispase and collagenase having the same concentrations as those mentioned above for 15 minutes so as to remove the supernatant and then further shaken at 37° C. for 50 to 60 minutes at 120 to 130 cycles/minute. Then, after being washed twice with HBSS, Ham F12 containing 2% of Ultrocer G™ was used to attain the concentration of 1×10^6 cells/ml. Thus formed suspension was dispensed in each well of a 96-well plate by 200 μl. The plate was incubated in the atmosphere composed of 5% CO2 and 95% air at 37° C. for three days so as to attain a confluent state and then subjected to MTT assay.
(§4) The sample compound was dissolved in DMSO so as to attain a concentration of 10^-2 M and then diluted with HBSS containing 2% of Ultrocer G™ so as to attain a final concentration of 10^-4 M. To each group, which 8 wells were used for, 10 μl of MTT reagent was added immediately after 100 μl of the medium in each well was exchanged for same volume of the resulting solution of the sample compound. After being incubated in an atmosphere composed of 5% CO2 and 95% air at 37° C. for 4 hours, thus formed solution was centrifuged and then its supernatant was discarded. Subsequently, 100 μl of 100% ethanol was added to the residue so as to dissolve MTT formazan. Then, the absorbance (OD: 570 to 630) was measured by a microplate reader. This method utilizes a phenomenon in which MTT is changed to MTT formazan only by mitochondria of living cells so as to change color.
(§5) The cell damaging or cell protecting effect of the sample compound at the final concentration of 10^-4 M was expressed as cell damaging rate (%) as follows:
(§6) cell damaging rate (%)=(1-(absorbance in sample group/absorbance in control group))×100
(§7) Accordingly, the smaller rate value is better in the cell damage.

[4] = system: stress ulcer; assay: WIS: Restraint and Water Immersion Stress-Induced Ulcer Inhibition Test; assay type: in vivo, rat (male Crj:SD or Slc:SD); details: 100 mg/kg oral, rats, 7 hours restraint and water immersion (21° C.)
Protocol: WIS: Restraint and Water Immersion Stress-Induced Ulcer Inhibition Test
The degree of inhibition of the stress ulcer formation is tested.
Male Crj:SD or Slc:SD rats (6 to 7-week-old) were fasted overnight, but allowed free access to water. Each group has 5 to 8 of these rats. […] To a control group, the vehicle was administered. 10 minutes later, the rats were placed in a stress cage and immersed to the level of xipfoid process in a water bath (21° C.) for 7 hours. At the end of the stress, the rats were sacrificed by inhalation of ether or carbon dioxide. Then, the stomach of each was removed, inflated by injecting 10 ml of 5% formalin neutral buffer solution, and immersed in 1% formalin neutral buffer solution for 30 minutes or more to be fixed. The stomach was incised along the greater curvature and then the length of each erosion in the glandular portion was determined under dissecting microscope. The sum of the length of erosions per stomach was defined as ulcer index (UI).
The effect obtained when 100 mg/kg of the sample compound had been administered was expressed as ulcer formation inhibitory rate (%) as follows:
ulcer formation inhibitory rate (%)=(1-(UI in sample group/UI in control group))×100

[5] = system: gastric corpus mucosa cells; assay: MTT: Cell Damaging and Protecting Effect Test; assay type: cell-based, rabbit (male Japanese White); details: final concentration 10^-4 M, 4 hours; smaller value is better; 100 µM
Excerpt: as §1, §2, §3, §4, §5, §6, §7

[6] = system: mice; details: mouse, in vivo
Protocol: AT: Single Dose Toxicity Pretest
Male Slc:ICR mice (5-week-old) were used. Each group has 3 to 5 mice and each mouse was fasted, but allowed free access to water, for 4 to 5 hours from 9 a.m. in the test day. Then, 2,000 mg/10 ml/kg of the sample compound dissolved or suspended in an aqueous solution of 0.5% sodium carboxymethyl cellulose was orally administered thereto. To a control, only the vehicle was administered. […] The body weight was measured before and after the fasting as well as at the same time everyday. The dead animals were immediately subjected to autopsy and their organs were observed microscopically. Also, the living animals were sacrificed with ether or carbon dioxide one week after the administration and then their organs were observed microscopically.
The toxicity at the single dose of 2,000 mg/kg of the sample compound was expressed as being classified into 5 levels.
5: Mortality rate is 0%; no toxicity is found at all both in behavior and organs.
4: Mortality rate is 0%; while no toxicity is found in organs, slight toxicity is observed in behavior and body weight increase.
3: While there is a dead animal (though not all the animals are dead), no toxicity is found in organs.
2: Regardless of whether there is a dead animal or not, toxicity is found in organs.
1: All the animals are dead.

Compound	inhibition at 10 µM [1]	cytotoxicity at 4 h, 100 µM [3]	AHP antibacterial activity, colony number relative to control plate [2]	further results
CC(C)Cc1cccc(C(=O)N2CCN(Cc3ccc4c(c3)OCO4)CC2)c1O [Example 11]	93.1%	5%		MIC [2]: < 3.13 mg/L
CC(C)=CCC/C(C)=C/COc1ccc(C(=O)N2CCN(Cc3ccc4c(c3)OCO4)CC2)cc1 [Example 4, 1-(4-geranyloxy)benzoyl-4-piperonylpiperazine]		-29%	+ (the number of the colony on the plate containing the sample compound was less than 90% with respect to that on the control plate)	WIS ulcer formation inhibitory rate [4]: 43%
CC(C)=CCOc1cc(C(=O)N2CCN(Cc3ccccc3)CC2)cc(OCC=C(C)C)c1OCC=C(C)C [Example 6, 1-benzyl-4-(3,4,5-triprenyloxy)benzoylpiperazine]	99.5%	-16%		
CC(C)Cc1cc(C(=O)N2CCN(Cc3ccccc3)CC2)ccc1OCc1ccccc1 [Example 9, 1-(4-benzyloxy-3-isobutyl)benzoyl-4-benzylpiperazine]	94.6%	-32%	+ (the number of the colony on the plate containing the sample compound was less than 90% with respect to that on the control plate)	
CC(C)=CCC/C(C)=C/COc1ccc(C(=O)N2CCN(CCNC(=O)c3ccc4c(c3)OCO4)CC2)cc1CC(C)C [Example 2, 1-(4-geranyloxy-3-isobutyl)benzoyl-4-[2-(piperonyloylamino)ethyl]piperazin]				CAP acid secretion inhibitory rate [1]: 99.4%; MTT cell damaging rate [5]: 22%
CC(C)Cc1cc(C(=O)N2CCN(c3ccccn3)CC2)ccc1OCc1ccc(F)cc1 [Example 10, 1-[4-(4-fluorobenzyloxy)-3-isobutyl]benzoyl-4-(2-pyridyl) piperazine]	96%	-34%		AT single dose toxicity level [6]: 5
CC(C)=CCC/C(C)=C/COc1ccc(C(=O)N2CCN(CCOC(=O)c3ccncc3)CC2)cc1 [Example 3, 1-(4-geranyloxy)benzoyl-4-(2-isonicotinoyloxyethyl)piperazine]	101%	-24%		
COc1cc(C(=O)N2CCN(Cc3ccccc3)CC2)cc(OC/C=C(\C)CCC=C(C)C)c1OC [Example 7, 1-benzyl-4-(3,4-dimethoxy-5-geranyloxy)benzoylpiperazine]	99.6%	-44%		
CC(C)Cc1cc(C(=O)N2CCN(C(=O)NC(C)C)CC2)ccc1OCc1ccc(F)cc1 [Example 8, 1-[4-(4-fluorobenzyloxy)-3-isobutyl]benzoyl-4-(N-isopropylcarbamoyl)piperazine]	36.9%	-93%		MIC [2]: < 3.13 mg/L
CC(C)Cc1ccc(C(=O)N2CCN(C(c3ccccc3)c3ccccc3)CC2)cc1O [Example 12, 1-diphenylmethyl-4-(3-hydroxy-4-isobutyl)benzoylpiperazine]	41.9%	-12%	+ (the number of the colony on the plate containing the sample compound was less than 90% with respect to that on the control plate)	
COc1cc(C(=O)N2CCN(Cc3ccccc3)CC2)cc(OC)c1OC/C=C(\C)CCC=C(C)C [Example 5, 1-benzyl-4-(3,5-dimethoxy-4-geranyloxy)benzoylpiperazine]	99.2%	-50%	+ (the number of the colony on the plate containing the sample compound was less than 90% with respect to that on the control plate)	
